{"source": "patent US10611720B2", "about": "“Composition for preventing or treating hair loss including benzene diamine derivative” (UNIST(ULSAN NATIONAL INSTITUTE OF SCIENCE AND TECHNOLOGY), priority 2017, dated 2020)", "key": {"SOX-9 [1]": {"system": "SOX-9", "assay": "SOX-9 expression in hDPC cells under oligomer Aβ (confocal fluorescence)", "type": "cell-based, human", "conditions": "hDPCs, 2 nM oligomer Aβ + 25 μg/ml compound, 3 days; for SOX-9 expression (average fluorescence intensity): normal group 220±12, oligomer Aβ control 12±4; for SOX-9 expression (confocal imaging, in words): Example 4, compared with cells treated with oligomer Aβ", "method": "(§1) As in Example 2, examination was performed by using oligomer Aβ as a cytotoxic material for hDPC.\n(§2) At 3 days after treatment of the derivatives, the cells were fixed with 4% paraformaldehyde solution, and washed with PBS, and then fluorescence of ROI (relative fluorescence intensity) was measured at 488 nm by a confocal microscope (CONFOCAL, LSM710, Carl Zeiss, Germany) to examine SOX-9 and Cola17a1 expressions. As in Example 2, examination was performed by using oligomer Aβ as a cytotoxic material for hDPC.\nas §2, with “fluorescence” for “fluorescence of ROI (relative fluorescence intensity)”, “488 nm/565” for “488”, “hDPC. […] COL17A1 expression was inhibited in the cells (control group C) treated with the cytotoxic oligomer Aβ, as compared with the normal group.” for “hDPC.”"}, "COL17A1": {"system": "COL17A1", "assay": "COL17A1 expression in hDPC cells under oligomer Aβ (confocal fluorescence)", "type": "cell-based, human", "conditions": "hDPCs, 2 nM oligomer Aβ + 25 μg/ml compound, 3 days; normal group 143±11, oligomer Aβ control 16±6", "method": "as §1, §2\nas §2, with “fluorescence” for “fluorescence of ROI (relative fluorescence intensity)”, “488 nm/565” for “488”, “hDPC. […] COL17A1 expression was inhibited in the cells (control group C) treated with the cytotoxic oligomer Aβ, as compared with the normal group.” for “hDPC.”"}, "[2]": {"system": "APP/PS/Tau mouse (hair loss-induced mouse model)", "assay": "Hair growth change in hair loss mouse model, oral administration", "type": "in vivo", "conditions": "APP/PS/Tau mice, oral 100 μg/Kg twice a week for 2 months", "method": "An experimental group was prepared by orally administering the control group with the benzene diamine derivate at a concentration of 100 μg/Kg/0.1 ml using a zonde twice a week, and then changes in appearance were observed.\nIn detail, APP/PS/Tau was purchased from Jackson lab (BAR HARBOR, USA), and APP/Tau female and APP/PSen1de9 purchased from Taconic (Hudson, USA) were cross-mated for 6 generations, and 4-month-old mouse models were obtained from F1. The mouse models were characterized by appearance of hair loss. The hair loss mouse models were divided into groups of 6 mice, and among the hair loss mouse models, the normal group and the control group were orally administered with a phosphate buffer carrier (PBS) for 2 months, and the experimental group was orally administered with 100 μl of N^1-(pyridin-2-ylmethyl)benzene-1,4-diamine (Compound 1) at a concentration of 100 μg/Kg twice a week for 2 months. Thereafter, changes in their appearance were compared."}, "SOX-2": {"system": "SOX-2", "assay": "SOX-2 expression in skin of hair loss mouse model, oral administration", "type": "in vivo", "conditions": "APP/PS/Tau mice, oral 100 μg/Kg twice a week, 2 months", "method": "(§3) Accordingly, the present inventors examined whether expressions of hair growth stimulating factors, SOX-2 and SOX-9 were increased in hair loss animal models by the benzene diamine derivates of the present disclosure. In order to examine SOX-2 and SOX-9 expressions inside skin tissues, APP/PS/Tau mouse which is a hair loss-induced mouse model was selected as a control group and C57BL6 mouse was selected as a normal group, as in Example 5. An experimental group was prepared by orally administering the control group with the benzene diamine derivate at a concentration of 100 μg/Kg/0.1 ml using a zonde twice a week. 2 months later, incision of the skin was performed under local anesthesia, and the skin tissues were fixed in 4% paraformaldehyde solution for 24 hours, and fixed in a plastic mold with O.C.T. Compound (SAKURA, USA) for cryostat sectioning. […] Thereafter, the plate was put on a slide glass and covered with a cover slide, and stored in a dark acrylic box, and fluorescence imaging was observed under a confocal microscope (LSM710, Carl Zeiss, Germany) by 405/488/565 nm laser. […]"}, "SOX-9 [3]": {"system": "SOX-9", "assay": "SOX-9 expression in skin of hair loss mouse model, oral administration", "type": "in vivo", "conditions": "APP/PS/Tau mice, oral 100 μg/Kg twice a week, 2 months", "method": "as §3"}, "monomer/oligomer Aβ": {"system": "monomer/oligomer Aβ", "assay": "Monomer/oligomer Aβ expression in skin of hair loss mouse model, oral administration", "type": "in vivo", "conditions": "APP/PS/Tau mice, oral 100 μg/Kg twice a week, 2 months"}, "[4]": {"system": "human hair follicle dermal papilla cells (hDPCs)", "assay": "Cell viability (MTT) of hDPCs under oligomer Aβ-induced cytotoxicity", "conditions": "hDPCs treated with 2 nM oligomer Aβ and 25 μg/ml compound, 72 hours, as compared with group (N)", "procedure": "In order to examine effects of the benzene diamine derivates of the present disclosure on improvement of cell viability of hair follicular cells, human hair follicle dermal papilla cells (hDPCs) were treated with the benzene diamine derivates, and cell viability was examined. […] Therefore, examination was performed by using oligomer Aβ as a toxic material for hDPC.\nIn detail, 2×10^3 hDPCs were dispensed in a multi 96-well plate containing a DMEM medium supplemented with 10% FBS, and cultured in a CO2 incubator (Thermo Scientific) at 37° C., 5% CO2 for 24 hours. Thereafter, experiments were performed by using a normal group which was treated with only cells, a control group which was a group treated with 10 μl of 2 nM oligomer Aβ (oAβ) previously synthesized, and an experimental group which is prepared by treating the normal group with the same concentration of oligomer Aβ and 25 μg/ml of each benzene diamine derivate sample in water or DMSO. To examine cell viability at 72 hours after treatment of the cell line with the sample, 20 μl of 2% MTT solution was added to the cell culture medium. 3 hours later, to terminate the reaction, the culture medium was removed by aspiration, and 50 μl of DMSO was added. 30 minutes later, the reaction was terminated. Thereafter, OD value was measured at 570 nm by using a microplate reader (BioTek, Synergy HT, USA)."}}, "data": [{"smiles": "Nc1ccc(NCc2ccccn2)cc1", "note": "[Compound 1, N^1-(pyridin-2-ylmethyl)benzene-1,4-diamine]", "values": [{"measurement": "SOX-9 expression (average fluorescence intensity)", "setting": "SOX-9 [1]", "result": "134±23", "unit": "AFI"}, {"measurement": "COL17A1 expression (average fluorescence intensity)", "setting": "COL17A1", "result": "152±13", "unit": "AFI"}, {"measurement": "hair loss (changes in appearance)", "setting": "[2]", "result": "remarkable improvement in hair loss"}, {"measurement": "SOX-2 expression in skin", "setting": "SOX-2", "result": "remarkably expressed close to the normal group"}, {"measurement": "SOX-9 expression in skin", "setting": "SOX-9 [3]", "result": "remarkably increased"}, {"measurement": "monomer/oligomer Aβ expression in skin", "setting": "monomer/oligomer Aβ", "result": "decreased"}, {"measurement": "cell viability", "setting": "[4]", "result": "82±2", "unit": "%"}]}, {"smiles": "CN(C)c1ccc(N)cc1", "note": "[Compound 3, N^1,N^1-dimethyl-1,4-phenylenediamine]", "values": [{"measurement": "SOX-9 expression (average fluorescence intensity)", "setting": "SOX-9 [1]", "result": "157±21", "unit": "AFI"}, {"measurement": "COL17A1 expression (average fluorescence intensity)", "setting": "COL17A1", "result": "24±6", "unit": "AFI"}]}, {"smiles": "CC(=O)Nc1ccc(N(C)C)cc1", "note": "[Compound 4, N-(4-dimethylamino)phenyleneacetamide]", "values": [{"measurement": "SOX-9 expression (confocal imaging, in words)", "setting": "SOX-9 [1]", "result": "more strongly promoted the expression"}, {"measurement": "SOX-9 expression (average fluorescence intensity)", "setting": "SOX-9 [1]", "result": "446±110", "unit": "AFI"}, {"measurement": "COL17A1 expression (average fluorescence intensity)", "setting": "COL17A1", "result": "2±1", "unit": "AFI"}, {"measurement": "cell viability", "setting": "[4]", "result": "74±3", "unit": "%"}]}, {"smiles": "CC(=O)Nc1ccc(NC(C)=O)cc1", "note": "[Compound 6, N,N-(1,4-phenylene)diacetate Amide]", "values": [{"measurement": "SOX-9 expression (average fluorescence intensity)", "setting": "SOX-9 [1]", "result": "267±56", "unit": "AFI"}, {"measurement": "COL17A1 expression (average fluorescence intensity)", "setting": "COL17A1", "result": "226±34", "unit": "AFI"}, {"measurement": "cell viability", "setting": "[4]", "result": "86±1", "unit": "%"}]}, {"smiles": "c1ccc(CNc2ccc(N3CCOCC3)cc2)nc1", "note": "[Compound 2, 4-morpholino-N-(pyridin-2-ylmethyl)aniline]", "values": [{"measurement": "SOX-9 expression (average fluorescence intensity)", "setting": "SOX-9 [1]", "result": "187±23", "unit": "AFI"}, {"measurement": "COL17A1 expression (average fluorescence intensity)", "setting": "COL17A1", "result": "234±31", "unit": "AFI"}, {"measurement": "cell viability", "setting": "[4]", "result": "87±5", "unit": "%"}]}, {"smiles": "CC(=O)Nc1ccc(N)cc1", "note": "[Compound 5, N-(4-aminophenyl)acetamide]", "values": [{"measurement": "SOX-9 expression (confocal imaging, in words)", "setting": "SOX-9 [1]", "result": "more strongly promoted the expression"}, {"measurement": "SOX-9 expression (average fluorescence intensity)", "setting": "SOX-9 [1]", "result": "325±45", "unit": "AFI"}, {"measurement": "COL17A1 expression (average fluorescence intensity)", "setting": "COL17A1", "result": "3±1", "unit": "AFI"}, {"measurement": "cell viability", "setting": "[4]", "result": "77±1", "unit": "%"}]}]}
